What was measured:
mongrel adult dogs [1] = experiment: Effects on arterial mean blood pressure (thoractomized anesthetized dogs, i.v.); type: in vivo, dog
Description: (§1) All experiments were conducted on male and female thoractomized mongrel adult dogs weighing about 10 Kg under anesthesia with pentobarbital sodium.
(§2) Arterial blood pressure was measured by pressure transducer (Nippon Koden MPU-0.5) connected with the cannula inserted from exposed carotid artery into aorta. Aortic blood flow was determined by means of electromagnetic flow meter (Nippon Koden MF-5) mounted at an origin of aorta. Coronary sinus out flow and coronary sinus oxygen tension were assessed by means of electromagnetic flow meter (Nippon Koden MF-5) and Po2 Macro electrode (Beckmann Moder 160-C), respectively, using Morawitz cannulization technique. Heart rate was measured by cardiotachometer (Nippon Koden RT-2) synchronized with systolic blood pressure of aorta.

mongrel adult dogs [2] = experiment: Effects on aortic blood flow (thoractomized anesthetized dogs, i.v.); type: in vivo, dog
Description: as §1, §2

mongrel adult dogs [3] = experiment: Effects on coronary sinus out flow (thoractomized anesthetized dogs, i.v.); type: in vivo, dog
Description: as §1, §2

mongrel adult dogs [4] = experiment: Effects on coronary sinus oxygen tension (thoractomized anesthetized dogs, i.v.); type: in vivo, dog
Description: as §1, §2

mongrel adult dogs [5] = experiment: Effects on heart rate (thoractomized anesthetized dogs, i.v.); type: in vivo, dog
Description: as §1, §2

mongrel adult dogs [6] = experiment: Effects on the work done by the left ventricle (thoractomized anesthetized dogs, i.v.); type: in vivo, dog
Description: as §1, §2
The work done by the left ventricle is calculated according to the following equation: […]

[7] = Acute toxicity (LD50; per os, mice); type: in vivo; conditions: mouse, in vivo, po, dd-0train male mice
Description: (§3) 7. Acute Toxicity (See Table 7) Acute toxicity (LD50; per os, mice) was measured in dd-0train male mice.

dd-0train male mice = experiment: Acute toxicity (LD50; per os, mice); type: in vivo
Description: as §3

CCOC(=O)N1CCN(C(C#N)c2ccc(OC)c(OC)c2)CC1 (stereo not drawn) [Compound B-01, N-(α-cyano-3,4-dimethoxybenzyl)-N'-ethoxycarbonyl piperazine]
Changes(%) of basal values, arterial mean blood pressure (mongrel adult dogs [1]; i.v. 2.0 mg/Kg, 15 min): -4.5%
Changes(%) of basal values, arterial mean blood pressure (mongrel adult dogs [1]; i.v. 2.0 mg/Kg, 25 min): -4.0%
Changes(%) of basal values, arterial mean blood pressure (mongrel adult dogs [1]; i.v. 6.0 mg/Kg, 15 min): -6.3%
Changes(%) of basal values, arterial mean blood pressure (mongrel adult dogs [1]; i.v. 6.0 mg/Kg, 25 min): -3.0%
Changes(%) of basal values, arterial mean blood pressure (mongrel adult dogs [1]; i.v. 20.0 mg/Kg, 15 min): -17.7%
Changes(%) of basal values, arterial mean blood pressure (mongrel adult dogs [1]; i.v. 20.0 mg/Kg, 25 min): -17.4%
Duration of hypotensive effect (in words) (mongrel adult dogs [1]; i.v., dogs): longer duration
Effect on arterial mean blood pressure (in words) (mongrel adult dogs [1]; i.v., dogs): hypotensive effects
Changes(%) of basal values, aortic blood flow (mongrel adult dogs [2]; i.v. 2.0 mg/Kg, 15 min): +2.0%
Changes(%) of basal values, aortic blood flow (mongrel adult dogs [2]; i.v. 2.0 mg/Kg, 25 min): +1.0%
Changes(%) of basal values, aortic blood flow (mongrel adult dogs [2]; i.v. 6.0 mg/Kg, 15 min): +0.1%
Changes(%) of basal values, aortic blood flow (mongrel adult dogs [2]; i.v. 6.0 mg/Kg, 25 min): +1.0%
Changes(%) of basal values, aortic blood flow (mongrel adult dogs [2]; i.v. 20.0 mg/Kg, 15 min): +3.6%
Changes(%) of basal values, aortic blood flow (mongrel adult dogs [2]; i.v. 20.0 mg/Kg, 25 min): +1.6%
Increase of aortic blood flow (mongrel adult dogs [2]; i.v., dogs): 2-8%
Later effect on aortic blood flow / its duration (in words) (mongrel adult dogs [2]; i.v., dogs): longer duration
Effect on aortic blood flow immediately after administration (in words) (mongrel adult dogs [2]; i.v., dogs, immediately): no decrease in blood flow immediately after medication
Changes(%) of basal values, coronery sinus out flow (mongrel adult dogs [3]; i.v. 2.0 mg/Kg, 15 min): +4.4%
Changes(%) of basal values, coronery sinus out flow (mongrel adult dogs [3]; i.v. 2.0 mg/Kg, 25 min): +3.0%
Changes(%) of basal values, coronery sinus out flow (mongrel adult dogs [3]; i.v. 6.0 mg/Kg, 15 min): +10.9%
Changes(%) of basal values, coronery sinus out flow (mongrel adult dogs [3]; i.v. 6.0 mg/Kg, 25 min): +8.0%
Changes(%) of basal values, coronery sinus out flow (mongrel adult dogs [3]; i.v. 20.0 mg/Kg, 15 min): +38.2%
Changes(%) of basal values, coronery sinus out flow (mongrel adult dogs [3]; i.v. 20.0 mg/Kg, 25 min): +20.3%
Dose dependence and duration of effect on coronary sinus out flow (in words) (mongrel adult dogs [3]; i.v., dogs): proportioned to doses and of longer duration
Effect on coronary sinus out flow (in words) (mongrel adult dogs [3]; i.v., dogs): marked increasing effect on coronary sinus out flow
Changes(%) of basal values, coronary sinus oxygen tension (mongrel adult dogs [4]; i.v. 2.0 mg/Kg, 15 min): +12.0%
Changes(%) of basal values, coronary sinus oxygen tension (mongrel adult dogs [4]; i.v. 2.0 mg/Kg, 25 min): +12.5%
Changes(%) of basal values, coronary sinus oxygen tension (mongrel adult dogs [4]; i.v. 6.0 mg/Kg, 10 min): +3.0%
Changes(%) of basal values, coronary sinus oxygen tension (mongrel adult dogs [4]; i.v. 6.0 mg/Kg, 15 min): +25.5%
Changes(%) of basal values, coronary sinus oxygen tension (mongrel adult dogs [4]; i.v. 6.0 mg/Kg, 25 min): +16.2%
Changes(%) of basal values, coronary sinus oxygen tension (mongrel adult dogs [4]; i.v. 20.0 mg/Kg, 5 min): +89.0%
Changes(%) of basal values, coronary sinus oxygen tension (mongrel adult dogs [4]; i.v. 20.0 mg/Kg, 15 min): +90.1%
Changes(%) of basal values, coronary sinus oxygen tension (mongrel adult dogs [4]; i.v. 20.0 mg/Kg, 25 min): +63.0%
Duration of effect on coronary sinus oxygen tension (in words) (mongrel adult dogs [4]; i.v., dogs): proportioned to an increase in coronary sinus out flow and of longer duration
Effect on coronary sinus oxygen tension (in words) (mongrel adult dogs [4]; i.v., dogs): significant increase in coronary sinus oxygen tension
Changes(%) of basal values, heart rate (mongrel adult dogs [5]; i.v. 2.0 mg/Kg, 15 min): 0%
Changes(%) of basal values, heart rate (mongrel adult dogs [5]; i.v. 2.0 mg/Kg, 25 min): 0%
Changes(%) of basal values, heart rate (mongrel adult dogs [5]; i.v. 6.0 mg/Kg, 15 min): +0.6%
Changes(%) of basal values, heart rate (mongrel adult dogs [5]; i.v. 6.0 mg/Kg, 25 min): +1.0%
Changes(%) of basal values, heart rate (mongrel adult dogs [5]; i.v. 20.0 mg/Kg, 15 min): -2.6%
Changes(%) of basal values, heart rate (mongrel adult dogs [5]; i.v. 20.0 mg/Kg, 25 min): -6.3%
Effect on heart rate (in words) (mongrel adult dogs [5]; i.v., dogs): sight negative chromotropic effect
Changes(%) of basal values, work of left ventricle (mongrel adult dogs [6]; i.v. 2.0 mg/Kg, 1 min): +2.7%
Changes(%) of basal values, work of left ventricle (mongrel adult dogs [6]; i.v. 2.0 mg/Kg, 5 min): +0.8%
Changes(%) of basal values, work of left ventricle (mongrel adult dogs [6]; i.v. 2.0 mg/Kg, 10 min): -2.0%
Changes(%) of basal values, work of left ventricle (mongrel adult dogs [6]; i.v. 2.0 mg/Kg, 15 min): -2.6%
Changes(%) of basal values, work of left ventricle (mongrel adult dogs [6]; i.v. 2.0 mg/Kg, 20 min): -2.9%
Changes(%) of basal values, work of left ventricle (mongrel adult dogs [6]; i.v. 2.0 mg/Kg, 25 min): -3.1%
Changes(%) of basal values, work of left ventricle (mongrel adult dogs [6]; i.v. 2.0 mg/Kg, 30 min): -3.6%
Changes(%) of basal values, work of left ventricle (mongrel adult dogs [6]; i.v. 2.0 mg/Kg, imm.): -3.6%
Changes(%) of basal values, work of left ventricle (mongrel adult dogs [6]; i.v. 6.0 mg/Kg, 1 min): +2.3%
Changes(%) of basal values, work of left ventricle (mongrel adult dogs [6]; i.v. 6.0 mg/Kg, 5 min): -1.7%
Changes(%) of basal values, work of left ventricle (mongrel adult dogs [6]; i.v. 6.0 mg/Kg, 10 min): -5.9%
Changes(%) of basal values, work of left ventricle (mongrel adult dogs [6]; i.v. 6.0 mg/Kg, 15 min): -8.3%
Changes(%) of basal values, work of left ventricle (mongrel adult dogs [6]; i.v. 6.0 mg/Kg, 20 min): -5.3%
Changes(%) of basal values, work of left ventricle (mongrel adult dogs [6]; i.v. 6.0 mg/Kg, 25 min): -2.0%
Changes(%) of basal values, work of left ventricle (mongrel adult dogs [6]; i.v. 6.0 mg/Kg, 30 min): -2.8%
Changes(%) of basal values, work of left ventricle (mongrel adult dogs [6]; i.v. 6.0 mg/Kg, imm.): -0.1%
Changes(%) of basal values, work of left ventricle (mongrel adult dogs [6]; i.v. 20.0 mg/Kg, 1 min): -10.9%
Changes(%) of basal values, work of left ventricle (mongrel adult dogs [6]; i.v. 20.0 mg/Kg, 5 min): -8.4%
Changes(%) of basal values, work of left ventricle (mongrel adult dogs [6]; i.v. 20.0 mg/Kg, 10 min): -9.2%
Changes(%) of basal values, work of left ventricle (mongrel adult dogs [6]; i.v. 20.0 mg/Kg, 15 min): -14.8%
Changes(%) of basal values, work of left ventricle (mongrel adult dogs [6]; i.v. 20.0 mg/Kg, 20 min): -14.3%
Changes(%) of basal values, work of left ventricle (mongrel adult dogs [6]; i.v. 20.0 mg/Kg, 25 min): -16.1%
Changes(%) of basal values, work of left ventricle (mongrel adult dogs [6]; i.v. 20.0 mg/Kg, 30 min): -14.1%
Changes(%) of basal values, work of left ventricle (mongrel adult dogs [6]; i.v. 20.0 mg/Kg, imm.): -8.5%
Duration of effect on the work of the left ventricle (in words) (mongrel adult dogs [6]; i.v., dogs): longer duration
Effect on the work of the left ventricle (in words) (mongrel adult dogs [6]; i.v., dogs): decrease in the work of the left ventricle
LD50 [7]: 2200 mg/kg
LD50 (dd-0train male mice; dd-0train male mice): 2200 mg/kg
Acute toxicity relative to Vastarel F (in words) (dd-0train male mice; mice): significantly less toxicity than that of Vastarel F
